# Patent publication US20120315290A1, “INHIBITORS OF LL-37 MEDIATED IMMUNE REACTIVITY TO SELF NUCLEIC ACIDS” (BOARD OF REGENTS, THE UNIVERSITY OF TEXAS SYSTEM, priority 2006, published 2012)
# Tests used:
# murine pDC = assay: Murine pDC stimulation with peptide/DNA complexes (IFN-a ELISA); assay type: cell-based, mouse; conditions: complexed with DNA
# Experimental: Murine pDC were generated from Flt3 ligand supplemented BM cultures and isolated by sorting of CD11c+CD11b-B220+ cells, as previously described. 50,000 murine pDC in […] of complete medium were stimulated with human LL-37 ([…]), mouse CRAMP ([…]), DNA alone, or DNA plus LL-37 or DNA plus CRAMP. After overnight culture supernatants were collected and tested for IFN-a by ELISA.
# Murine pDC respond to LL-37-DNA complexes. To determine whether mouse pDCs can respond to LL-37/DNA complexes, we purified mouse pDCs from Flt3L-supplemented BM cultures according to their CD11c+CD11b-B220+ phenotype, and stimulated them with DNA complexed with LL-37 or CRAMP (the murine LL-37 homologue). […] However, compared to LL-37, approximately 3 times more CRAMP was required to elicit the same amount of type I IFNs (FIG. 27).
# TLR7 = biological target: T1, TLR7 (Homo sapiens, UniProt Q9NYK1); assay: Inhibition of IFN-α induction in pDC by TLR7 agonist imiquimod; assay type: cell-based
# T1 construct: PDC from healthy donors were purified from freshly collected buffy coats; endogenous in cells; host or cells: primary human pDC sorted from buffy coats of healthy donors
# T1 sequence (Q9NYK1 27-1049): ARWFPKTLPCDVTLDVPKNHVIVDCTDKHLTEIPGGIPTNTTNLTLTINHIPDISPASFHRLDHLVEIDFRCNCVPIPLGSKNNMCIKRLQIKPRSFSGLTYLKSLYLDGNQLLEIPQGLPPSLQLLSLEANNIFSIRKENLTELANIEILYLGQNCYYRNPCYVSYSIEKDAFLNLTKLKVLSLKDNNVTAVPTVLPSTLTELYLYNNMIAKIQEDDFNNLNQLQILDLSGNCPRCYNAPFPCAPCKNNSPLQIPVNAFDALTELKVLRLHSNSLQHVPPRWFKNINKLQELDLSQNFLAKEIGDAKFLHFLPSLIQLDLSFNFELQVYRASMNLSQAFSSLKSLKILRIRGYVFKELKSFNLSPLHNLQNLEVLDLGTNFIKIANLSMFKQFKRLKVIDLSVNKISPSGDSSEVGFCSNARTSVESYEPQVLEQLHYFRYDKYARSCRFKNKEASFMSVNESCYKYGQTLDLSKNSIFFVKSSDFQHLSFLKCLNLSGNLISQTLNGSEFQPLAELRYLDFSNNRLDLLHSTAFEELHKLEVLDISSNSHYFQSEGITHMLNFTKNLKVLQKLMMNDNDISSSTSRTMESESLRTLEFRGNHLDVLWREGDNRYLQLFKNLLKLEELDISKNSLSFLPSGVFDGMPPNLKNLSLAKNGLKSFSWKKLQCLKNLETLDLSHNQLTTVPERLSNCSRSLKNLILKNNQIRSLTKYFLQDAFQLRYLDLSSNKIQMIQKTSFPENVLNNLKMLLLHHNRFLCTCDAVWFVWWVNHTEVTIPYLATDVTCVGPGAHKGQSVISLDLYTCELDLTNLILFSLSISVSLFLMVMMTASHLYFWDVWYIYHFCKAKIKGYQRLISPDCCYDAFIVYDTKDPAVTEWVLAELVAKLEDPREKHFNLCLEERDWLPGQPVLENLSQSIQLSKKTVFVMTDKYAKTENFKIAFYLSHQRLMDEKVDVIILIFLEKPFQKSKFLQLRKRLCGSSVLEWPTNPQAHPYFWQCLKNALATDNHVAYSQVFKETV
# Experimental: (§1) (A) pDC were stimulated with LL-37 (10 μM) in the presence of pertussis toxin (PTX) or KN62 to block the FPRL-1 and the P2X pathway respectively. Furthermore agonistic W peptide and ATP were used to stimulate these pathways on pDC. (B) pDC were stimulated with LL-37 (10 μM) in the presence of increasing concentrations of chloroquine to block the endosomal TLR pathway. (C) PDC were pre-treated DNase I, TLR-9 inhibitor (IRS, 4 μM) or ctrl ODN sequences for 30 min and followed by incubation with LL-37 (10 μM), CpG 2216 (CpGA, 1 μM) or imiquimod (R837,10 μg/ml) for 24 h (A). The culture supernatants were analyzed for IFN-α production by ELISA. One representative experiment of three is shown.
# (§2) PDC from healthy donors were purified from freshly collected buffy coats. Briefly, PBMC were isolated by Ficoll-Hypaque density gradient centrifugation (GE Healthcare, Piscatway, N.J.) followed by positive sorting using anti-BDCA4-conjugated magnetic microbeads (Miltenyi Biotec, Auburn, Calif.). […]
# (§3) Supernatants samples were taken after 18-24 h after addition of the stimuli. Human IFN-α was measured using a human IFN-α ELISA kit (PBL Biomedical Laboratories, New Brunswick, N.J.) according to the company's instructions. IL-6 and TNF-α were detected using a kit for human IL6 and TNF-α (R&D Systems), respectively.
# TLR-9 = biological target: T2, TLR-9 (Homo sapiens, UniProt Q9NR96); assay: Inhibition of IFN-α induction in pDC by TLR-9 agonist CpG sequences; assay type: cell-based
# T2 construct: PDC from healthy donors were purified from freshly collected buffy coats; endogenous in cells; host or cells: primary human pDC sorted from buffy coats of healthy donors
# T2 sequence (Q9NR96 26-1032): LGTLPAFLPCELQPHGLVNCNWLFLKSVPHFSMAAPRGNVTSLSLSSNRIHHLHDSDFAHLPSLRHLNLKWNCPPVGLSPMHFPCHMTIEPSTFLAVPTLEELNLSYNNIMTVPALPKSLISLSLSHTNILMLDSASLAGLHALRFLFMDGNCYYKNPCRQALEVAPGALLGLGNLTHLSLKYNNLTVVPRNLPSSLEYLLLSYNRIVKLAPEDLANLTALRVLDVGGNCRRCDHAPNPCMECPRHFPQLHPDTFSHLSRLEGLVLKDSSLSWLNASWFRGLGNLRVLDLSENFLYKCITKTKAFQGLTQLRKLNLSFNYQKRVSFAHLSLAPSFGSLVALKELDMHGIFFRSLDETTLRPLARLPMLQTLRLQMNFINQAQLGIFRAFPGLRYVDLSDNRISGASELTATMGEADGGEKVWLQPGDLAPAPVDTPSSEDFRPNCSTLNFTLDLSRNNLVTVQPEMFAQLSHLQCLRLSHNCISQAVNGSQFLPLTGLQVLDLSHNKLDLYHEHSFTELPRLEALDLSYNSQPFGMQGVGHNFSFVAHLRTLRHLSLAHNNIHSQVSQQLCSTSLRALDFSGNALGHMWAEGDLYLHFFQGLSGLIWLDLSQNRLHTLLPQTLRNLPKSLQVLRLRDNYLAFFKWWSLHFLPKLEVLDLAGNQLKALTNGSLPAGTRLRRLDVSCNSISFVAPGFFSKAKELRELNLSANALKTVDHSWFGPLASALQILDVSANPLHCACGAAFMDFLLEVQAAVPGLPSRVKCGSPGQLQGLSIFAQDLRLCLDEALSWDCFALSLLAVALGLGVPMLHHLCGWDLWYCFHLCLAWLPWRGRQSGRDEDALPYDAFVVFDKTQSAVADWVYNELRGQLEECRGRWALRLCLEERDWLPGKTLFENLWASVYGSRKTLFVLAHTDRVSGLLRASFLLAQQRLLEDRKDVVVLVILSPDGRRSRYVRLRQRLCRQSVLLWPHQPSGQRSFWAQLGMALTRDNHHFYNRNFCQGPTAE
# Experimental: as §1, §2, §3
# [1] = system: LL-37-mediated activation of pDC; assay: Inhibition of LL-37-mediated IFN-α induction in pDC; assay type: cell-based, human; conditions: pDC stimulated with LL-37 (10 μM) in presence of the substance
# Experimental: as §1
# Heparin (an anionic sugar) was preincubated for ½ h with LL-37 before stimulating pDC (thus associating with self-DNA released by dying cells in culture) or before adding genomic human DNA and subsequently stimulating pDC.
# PDC from healthy donors were purified from freshly collected buffy coats. Briefly, PBMC were isolated by Ficoll-Hypaque density gradient centrifugation (GE Healthcare, Piscatway, N.J.) followed by positive sorting using anti-BDCA4-conjugated magnetic microbeads (Miltenyi Biotec, Auburn, Calif.). The recovered cells were stained with PE-Cy5-conjugated anti-CD4, APC-conjugated CD11c, and a cocktail of FITC-conjugated anti-CD3, anti-CD14, anti-CD16, anti-CD15, anti-CD20 and anti-CD56 (Lineage-FITC) (BD Pharmingen, San Diego, Calif.). The CD4+CD11c-Lin- (pDC precursors) were isolated by cell sorting. Purity was routinely >99%. PDC (5-10×10^4/well) were cultured in 96-well round-bottom plates in RPMI 1640 (GIBCO, Carlsbad, Calif.) supplemented with 10% FCS (Atlanta Biologicals, Lawrenceville, Ga.). Where indicated, pDC were stimulated with CpGA (1 μM), CpGB (1 μM), R837 (10 ug/ml), IRS (4 uM), non-CpG sequence (4 uM), and different concentrations of LL-37 and of human genomic DNA. To prepare LL-37.DNA complexes, CpGB, huDNA, non-CpG and LL-37 were mixed by inversion and incubated for 30 min at room temperature before being added to the cells.
# as §3
Substance,"Amount required to elicit the same amount of type I IFNs, compared to LL-37 (murine pDC)",Effect on IFN-α induction by TLR7 agonist imiquimod in pDC (TLR7),Effect on IFN-α induction by TLR-9 agonist CpG sequences in pDC (TLR-9),Effect on IFN-α induction by LL-37 in pDC [1]
CRAMP,approximately 3 times,,,
"TTTAGGGTTAGGGTTAGGGTTAGGG (listed as DNA, chemistry not given here) [IRS]",,not TLR7 agonist imiquimod,block IFN-α induction by TLR-9 agonist CpG-sequences,inhibited pDC activation to produce IFN-α
